Results reported in the supplement of paper PMC10733146.

Columns and labels:
Assay in all cases: viability relative to DMSO control (fraction); higher = less drug effect (more viable cells)
Conditions in all cases: 48 h
Vorinostat = compound: O=C(CCCCCCC(=O)Nc1ccccc1)NO [Vorinostat]
Outline: (§1)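 In 384-well plates with compounds pre-plated at five concentrations (one well per concentration), primary mononuclear tumour cells were plated at 4 × 10^4 cells per well. The cells came from blood or bone marrow by Ficoll isolation or from processed lymph node, and were used fresh or cryopreserved. Culture ran for 48 h at 37 °C and 5% CO2 in RPMI-1640 containing penicillin/streptomycin, L-glutamine and human serum. Viability was read as CellTiter-Glo luminescence, normalised to the median of 16 inner DMSO wells.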

TMP269 = compound: O=C(NCC1(c2nc(-c3ccccc3)cs2)CCOCC1)c1cccc(-c2noc(C(F)(F)F)n2)c1 [TMP269]
Outline: as §1

Cladribine = compound: Nc1nc(Cl)nc2c1ncn2[C@H]1C[C@H](O)[C@@H](CO)O1 [Cladribine]
Outline: as §1

Pralatrexate = compound: C#CCC(Cc1cnc2nc(N)nc(N)c2n1)c1ccc(C(=O)N[C@@H](CCC(=O)O)C(=O)O)cc1 [Pralatrexate]
Outline: as §1

Idarubicin = compound: CC(=O)[C@]1(O)Cc2c(O)c3c(c(O)c2[C@@H](O[C@H]2C[C@H](N)[C@H](O)[C@H](C)O2)C1)C(=O)c1ccccc1C3=O [Idarubicin]
Outline: as §1

Pentostatin = compound: OC[C@H]1O[C@@H](n2cnc3c2N=CNC[C@H]3O)C[C@@H]1O [Pentostatin]
Outline: as §1

MLN-120B = compound: COc1c(Cl)cc2c([nH]c3cnccc32)c1NC(=O)c1cccnc1C [MLN-120B]
Outline: as §1

Ribociclib = compound: CN(C)C(=O)c1cc2cnc(Nc3ccc(N4CCNCC4)cn3)nc2n1C1CCCC1 [Ribociclib]
Outline: as §1

Iniparib = compound: NC(=O)c1ccc(I)c([N+](=O)[O-])c1 [Iniparib]
Outline: as §1

Imatinib = compound: Cc1ccc(NC(=O)c2ccc(CN3CCN(C)CC3)cc2)cc1Nc1nccc(-c2cccnc2)n1 [Imatinib]
Outline: as §1

Obatoclax mesylate = compound: COC1=CC(c2cc3ccccc3[nH]2)=N/C1=C\c1[nH]c(C)cc1C [Obatoclax mesylate]
Outline: as §1

AZD7762 = compound: NC(=O)Nc1cc(-c2cccc(F)c2)sc1C(=O)N[C@H]1CCCNC1 [AZD7762]
Outline: as §1

Birinapant = compound: CC[C@H](NC(=O)[C@H](C)NC)C(=O)N1C[C@@H](O)C[C@H]1Cc1c(-c2[nH]c3cc(F)ccc3c2C[C@@H]2C[C@H](O)CN2C(=O)[C@H](CC)NC(=O)[C@H](C)NC)[nH]c2cc(F)ccc12 [Birinapant]
Outline: as §1

ERK5-IN-1 = compound: CCOc1cc(C(=O)N2CCC(N3CCN(C)CC3)CC2)ccc1Nc1ncc2c(n1)N(C1CCCC1)c1ccccc1C(=O)N2C [ERK5-IN-1]
Outline: as §1

Panobinostat = compound: Cc1[nH]c2ccccc2c1CCNCc1ccc(/C=C/C(=O)NO)cc1 [Panobinostat]
Outline: as §1

primary FL patient cells (S087)
viability (Vorinostat; 0.016 µM): 1.02
viability (Vorinostat; 0.08 µM): 1.01
viability (Vorinostat; 0.4 µM): 0.936
viability (Vorinostat; 2 µM): 0.846
viability (Vorinostat; 10 µM): 0.597
viability (TMP269; 0.024 µM): 0.972
viability (TMP269; 0.12 µM): 0.934
viability (TMP269; 0.6 µM): 1.03
viability (TMP269; 3 µM): 0.918
viability (TMP269; 15 µM): 0.847
viability (Cladribine; 0.024 µM): 0.85
viability (Cladribine; 0.12 µM): 0.663
viability (Cladribine; 0.6 µM): 0.628
viability (Cladribine; 3 µM): 0.592
viability (Cladribine; 15 µM): 0.557
viability (Pralatrexate; 0.024 µM): 1.01
viability (Pralatrexate; 0.12 µM): 0.975
viability (Pralatrexate; 0.6 µM): 0.985
viability (Pralatrexate; 3 µM): 1.07
viability (Pralatrexate; 15 µM): 0.989
viability (Idarubicin; 0.024 µM): 0.829
viability (Idarubicin; 0.12 µM): 0.71
viability (Idarubicin; 0.6 µM): 0.489
viability (Idarubicin; 3 µM): 0.591
viability (Idarubicin; 15 µM): 0.0467
viability (Pentostatin; 0.03 µM): 1.02
viability (Pentostatin; 0.15 µM): 0.984
viability (Pentostatin; 0.75 µM): 0.967
viability (Pentostatin; 3.75 µM): 0.924
viability (Pentostatin; 18.76 µM): 0.902
viability (MLN-120B; 0.024 µM): 0.95
viability (MLN-120B; 0.12 µM): 0.954
viability (MLN-120B; 0.6 µM): 0.96
viability (MLN-120B; 3 µM): 0.947
viability (MLN-120B; 15 µM): 0.781
viability (Ribociclib; 0.024 µM): 0.975
viability (Ribociclib; 0.12 µM): 0.918
viability (Ribociclib; 0.6 µM): 0.946
viability (Ribociclib; 3 µM): 0.916
viability (Ribociclib; 15 µM): 0.743
viability (Iniparib; 0.024 µM): 1.05
viability (Iniparib; 0.12 µM): 1.03
viability (Iniparib; 0.6 µM): 1.03
viability (Iniparib; 3 µM): 1.03
viability (Iniparib; 15 µM): 0.94
viability (Imatinib; 0.016 µM): 0.983
viability (Imatinib; 0.08 µM): 1.02
viability (Imatinib; 0.4 µM): 1.04
viability (Imatinib; 2 µM): 0.999
viability (Imatinib; 10 µM): 0.852
viability (Obatoclax mesylate; 0.024 µM): 0.931
viability (Obatoclax mesylate; 0.12 µM): 0.939
viability (Obatoclax mesylate; 0.6 µM): 0.765
viability (Obatoclax mesylate; 3 µM): 0.542
viability (Obatoclax mesylate; 15 µM): 0.269
viability (AZD7762; 0.024 µM): 0.719
viability (AZD7762; 0.12 µM): 0.741
viability (AZD7762; 0.6 µM): 0.768
viability (AZD7762; 3 µM): 0.812
viability (AZD7762; 15 µM): 0.772
viability (Birinapant; 0.0008 µM): 0.895
viability (Birinapant; 0.004 µM): 0.918
viability (Birinapant; 0.02 µM): 0.927
viability (Birinapant; 0.1 µM): 0.907
viability (Birinapant; 0.5 µM): 0.892
viability (ERK5-IN-1; 0.024 µM): 0.946
viability (ERK5-IN-1; 0.12 µM): 0.956
viability (ERK5-IN-1; 0.6 µM): 0.881
viability (ERK5-IN-1; 3 µM): 0.769
viability (ERK5-IN-1; 15 µM): 0.368
viability (Panobinostat; 0.00064 µM): 0.965
viability (Panobinostat; 0.0032 µM): 0.928
viability (Panobinostat; 0.016 µM): 0.748
viability (Panobinostat; 0.08 µM): 0.602
viability (Panobinostat; 0.4 µM): 0.555

primary AML patient cells (S079)
viability (Vorinostat; 0.016 µM): 1.07
viability (Vorinostat; 0.08 µM): 1.04
viability (Vorinostat; 0.4 µM): 0.757
viability (Vorinostat; 2 µM): 0.256
viability (Vorinostat; 10 µM): 0.175
viability (TMP269; 0.024 µM): 0.968
viability (TMP269; 0.12 µM): 0.899
viability (TMP269; 0.6 µM): 0.91
viability (TMP269; 3 µM): 0.805
viability (TMP269; 15 µM): 0.792
viability (Cladribine; 0.024 µM): 0.609
viability (Cladribine; 0.12 µM): 0.235
viability (Cladribine; 0.6 µM): 0.0997
viability (Cladribine; 3 µM): 0.0674
viability (Cladribine; 15 µM): 0.0581
viability (Pralatrexate; 0.024 µM): 0.66
viability (Pralatrexate; 0.12 µM): 0.656
viability (Pralatrexate; 0.6 µM): 0.588
viability (Pralatrexate; 3 µM): 0.649
viability (Pralatrexate; 15 µM): 0.641
viability (Idarubicin; 0.024 µM): 0.758
viability (Idarubicin; 0.12 µM): 0.604
viability (Idarubicin; 0.6 µM): 0.118
viability (Idarubicin; 3 µM): 0.0155
viability (Idarubicin; 15 µM): 0.0137
viability (Pentostatin; 0.03 µM): 1.01
viability (Pentostatin; 0.15 µM): 0.935
viability (Pentostatin; 0.75 µM): 0.938
viability (Pentostatin; 3.75 µM): 0.898
viability (Pentostatin; 18.76 µM): 0.854
viability (MLN-120B; 0.024 µM): 0.884
viability (MLN-120B; 0.12 µM): 0.883
viability (MLN-120B; 0.6 µM): 0.899
viability (MLN-120B; 3 µM): 0.82
viability (MLN-120B; 15 µM): 0.781
viability (Ribociclib; 0.024 µM): 0.92
viability (Ribociclib; 0.12 µM): 0.908
viability (Ribociclib; 0.6 µM): 0.876
viability (Ribociclib; 3 µM): 0.776
viability (Ribociclib; 15 µM): 0.682
viability (Iniparib; 0.024 µM): 1.07
viability (Iniparib; 0.12 µM): 1.18
viability (Iniparib; 0.6 µM): 1.06
viability (Iniparib; 3 µM): 1.1
viability (Iniparib; 15 µM): 0.906
viability (Imatinib; 0.016 µM): 1.06
viability (Imatinib; 0.08 µM): 1.04
viability (Imatinib; 0.4 µM): 1.04
viability (Imatinib; 2 µM): 1.04
viability (Obatoclax mesylate; 0.024 µM): 0.983
viability (Obatoclax mesylate; 0.12 µM): 1.01
viability (Obatoclax mesylate; 0.6 µM): 0.852
viability (Obatoclax mesylate; 3 µM): 0.557
viability (Obatoclax mesylate; 15 µM): 0.281
viability (AZD7762; 0.024 µM): 0.748
viability (AZD7762; 0.12 µM): 0.703
viability (AZD7762; 0.6 µM): 0.727
viability (AZD7762; 3 µM): 0.397
viability (AZD7762; 15 µM): 0.208
viability (Birinapant; 0.0008 µM): 0.788
viability (Birinapant; 0.004 µM): 0.805
viability (Birinapant; 0.02 µM): 0.564
viability (Birinapant; 0.1 µM): 0.402
viability (Birinapant; 0.5 µM): 0.276
viability (ERK5-IN-1; 0.024 µM): 0.867
viability (ERK5-IN-1; 0.12 µM): 0.779
viability (ERK5-IN-1; 0.6 µM): 0.644
viability (ERK5-IN-1; 3 µM): 0.424
viability (ERK5-IN-1; 15 µM): 0.192
viability (Panobinostat; 0.00064 µM): 1.05
viability (Panobinostat; 0.0032 µM): 0.829
viability (Panobinostat; 0.016 µM): 0.185
viability (Panobinostat; 0.08 µM): 0.198
viability (Panobinostat; 0.4 µM): 0.315

primary DLBCL patient cells (S082)
viability (Vorinostat; 0.016 µM): 1.01
viability (Vorinostat; 0.08 µM): 0.914
viability (Vorinostat; 0.4 µM): 0.636
viability (Vorinostat; 2 µM): 0.0663
viability (Vorinostat; 10 µM): 0.0248
viability (TMP269; 0.024 µM): 0.909
viability (TMP269; 0.12 µM): 0.885
viability (TMP269; 0.6 µM): 0.891
viability (TMP269; 3 µM): 0.819
viability (TMP269; 15 µM): 0.873
viability (Cladribine; 0.024 µM): 0.858
viability (Cladribine; 0.12 µM): 0.613
viability (Cladribine; 0.6 µM): 0.476
viability (Cladribine; 3 µM): 0.442
viability (Cladribine; 15 µM): 0.399
viability (Pralatrexate; 0.024 µM): 1.02
viability (Pralatrexate; 0.12 µM): 1.15
viability (Pralatrexate; 0.6 µM): 0.992
viability (Pralatrexate; 3 µM): 1.08
viability (Pralatrexate; 15 µM): 1.05
viability (Idarubicin; 0.024 µM): 0.992
viability (Idarubicin; 0.12 µM): 0.622
viability (Idarubicin; 0.6 µM): 0.328
viability (Idarubicin; 3 µM): 0.0161
viability (Idarubicin; 15 µM): 0.0147
viability (Pentostatin; 0.03 µM): 0.964
viability (Pentostatin; 0.15 µM): 0.887
viability (Pentostatin; 0.75 µM): 0.915
viability (Pentostatin; 3.75 µM): 0.825
viability (Pentostatin; 18.76 µM): 0.837
viability (MLN-120B; 0.024 µM): 0.845
viability (MLN-120B; 0.12 µM): 0.83
viability (MLN-120B; 0.6 µM): 0.856
viability (MLN-120B; 3 µM): 0.819
viability (MLN-120B; 15 µM): 0.717
viability (Ribociclib; 0.024 µM): 0.925
viability (Ribociclib; 0.12 µM): 0.946
viability (Ribociclib; 0.6 µM): 0.935
viability (Ribociclib; 3 µM): 0.938
viability (Ribociclib; 15 µM): 1.02
viability (Iniparib; 0.024 µM): 1.09
viability (Iniparib; 0.12 µM): 1.06
viability (Iniparib; 0.6 µM): 1.01
viability (Iniparib; 3 µM): 1.06
viability (Iniparib; 15 µM): 1.01
viability (Imatinib; 0.016 µM): 1.08
viability (Imatinib; 0.4 µM): 1.2
viability (Imatinib; 2 µM): 1.16
viability (Imatinib; 10 µM): 1.36
viability (Obatoclax mesylate; 0.024 µM): 0.989
viability (Obatoclax mesylate; 0.12 µM): 1.34
viability (Obatoclax mesylate; 0.6 µM): 1.58
viability (Obatoclax mesylate; 3 µM): 1.41
viability (Obatoclax mesylate; 15 µM): 0.681
viability (AZD7762; 0.024 µM): 0.76
viability (AZD7762; 0.12 µM): 0.417
viability (AZD7762; 0.6 µM): 0.122
viability (AZD7762; 3 µM): 0.152
viability (AZD7762; 15 µM): 0.125
viability (Birinapant; 0.0008 µM): 0.923
viability (Birinapant; 0.004 µM): 1.04
viability (Birinapant; 0.02 µM): 1.12
viability (Birinapant; 0.1 µM): 1.09
viability (Birinapant; 0.5 µM): 1.06
viability (ERK5-IN-1; 0.024 µM): 0.854
viability (ERK5-IN-1; 0.12 µM): 0.818
viability (ERK5-IN-1; 0.6 µM): 0.621
viability (ERK5-IN-1; 3 µM): 0.265
viability (ERK5-IN-1; 15 µM): 0.224
viability (Panobinostat; 0.00064 µM): 0.781
viability (Panobinostat; 0.0032 µM): 0.404
viability (Panobinostat; 0.016 µM): 0.0415
viability (Panobinostat; 0.08 µM): 0.0242
viability (Panobinostat; 0.4 µM): 0.0275
